Assays:
Type in all cases: in vivo
Cyperus esculentus = test: Pre-emergence herbicidal action, CYPES; parameters: key: % activity: 100 = plants have died, 0 = like control plants; details: comparative experiment, 20 g of a.i./ha
Summary of the method: (§1)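 Seeds were covered with sandy loam soil, then received a pre-emergence surface spray of the WP- or EC-formulated compound. After 3 weeks under good greenhouse growth conditions, damage was scored visually in percent.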

Hordeum murinum [1] = test: Post-emergence herbicidal action, HORMU; parameters: key: % herbicidal action: 100 = plants died, 0 = like control; details: Dosage 80 g/ha
Protocol: [table] 2. Post-Emergence Herbicidal Action Against Harmful Plants Seeds of monocotyledonous and dicotyledonous weed and crop plants are laid out in sandy loam soil in wood-fiber pots, covered with soil and cultivated in a greenhouse under good growth conditions. 2 to 3 weeks after sowing, the test plants are treated at the one-leaf stage. The compounds of the invention, formulated in the form of wettable powders (WP) or as emulsion concentrates (EC), are then sprayed onto the green parts of the plants in the form of an aqueous suspension or emulsion at a water application rate equating to 600 to 800 l/ha, with addition of 0.2% wetting agent. After the test plants have been left to stand in the greenhouse under optimal growth conditions for about 3 weeks, the action of the preparations is assessed visually in comparison to untreated controls (herbicidal action in percent (%): 100% activity=the plants have died, 0% activity=like control plants). […] The tables below illustrate, in an exemplary manner, the post-emergence herbicidal action of the compounds according to the invention, the herbicidal activity being stated in percent. In the experiments that follow, herbicidal action of numerous inventive compounds and the known compounds that are structurally closest from D1 (WO 2012/028579 A1) and D2 (WO 2018/202535 A1) were compared under the above-specified conditions by the pre-emergence and post-emergence method. The example numbers given in the tables relate to the compounds disclosed in the respective documents. In addition to the compounds disclosed in D1 and D2, the following compounds V-1 to V-14 that are encompassed by D1 or D2 but are not compounds specified therein were used in the comparative experiments: • V-1: 2-(methylsulfanyl)-3-(methylsulfinyl)-N-(1-methyl-1H-tetrazol-5-yl)-4-(trifluoromethyl)benzamide • V-2: 2-(methylsulfanyl)-3-(methylsulfonyl)-N-(1-methyl-1H-tetrazol-5-yl)-4-(trifluoromethyl)benzamide • V-3: 2,3-bis(ethylsulfanyl)-N-(1-methyl-1H-tetrazol-5-yl)-4-(trifluoromethyl)benzamide • V-4: 2-chloro-3-(ethylsulfanyl)-N-(1-methyl-1H-tetrazol-5-yl)-4-(trifluoromethyl)benzamide • V-5: 2-chloro-4-iodo-3-(methylsulfanyl)-N-(1-methyl-1H-tetrazol-5-yl)benzamide • V-6: 2-chloro-4-iodo-3-(methylsulfinyl)-N-(1-methyl-1H-tetrazol-5-yl)benzamide • V-7: 2-chloro-4-iodo-3-(methylsulfonyl)-N-(1-methyl-1H-tetrazol-5-yl)benzamide • V-8: 2-bromo-3-(methylsulfanyl)-N-(1-methyl-1H-tetrazol-5-yl)-4-(trifluoromethyl)benzamide • V-9: 2-bromo-3-(methylsulfinyl)-N-(1-methyl-1H-tetrazol-5-yl)-4-(trifluoromethyl)benzamide • V-10: 2-bromo-3-(methylsulfonyl)-N-(1-methyl-1H-tetrazol-5-yl)-4-(trifluoromethyl)benzamide • V-11: 2-bromo-3-(ethylsulfanyl)-N-(1-methyl-1H-tetrazol-5-yl)-4-(trifluoromethyl)benzamide • V-12: 2-bromo-3-(ethylsulfinyl)-N-(1-methyl-1H-tetrazol-5-yl)-4-(trifluoromethyl)benzamide • V-13: 2-bromo-3-(ethylsulfonyl)-N-(1-methyl-1-1H-tetrazol-5-yl)-4-(trifluoromethyl)benzamide • V-14: 2-cyclopropyl-3-(ethylsulfanyl)-N-(1-methyl-1H-tetrazol-5-yl)-4-(trifluoromethyl)benzamide Herbicidal Pre-Emergence Action: […]

Hordeum murinum [2] = test: Pre-emergence herbicidal action, HORMU; details: dosage 320 g/ha, scored visually after 3 weeks vs untreated controls (100% = plants have died)
Summary of the method: as §1

Lolium rigidum = test: Pre-emergence herbicidal action, LOLRI; details: dosage 320 g/ha, scored visually after 3 weeks vs untreated controls (100% = plants have died)
From the text: 1. Pre-Emergence Herbicidal Action Against Harmful Plants Seeds of monocotyledonous and dicotyledonous weed plants and crop plants are laid out in sandy loam soil in wood-fiber pots and covered with soil. The compounds of the invention, formulated in the form of wettable powders (WP) or as emulsion concentrates (EC), are then applied to the surface of the covering soil in the form of an aqueous suspension or emulsion at a water application rate equating to 600 to 800 l/ha, with addition of 0.2% wetting agent. After the treatment, the pots are placed in a greenhouse and kept under good growth conditions for the trial plants. The damage to the test plants is scored visually after a test period of 3 weeks by comparison with untreated controls (herbicidal activity in percent (%): 100% activity=the plants have died, 0% activity=like control plants). […] The tables below illustrate, in an exemplary manner, the […] herbicidal action of the compounds according to the invention, the herbicidal activity being stated in percent. [table] In the experiments that follow, herbicidal action of numerous inventive compounds and the known compounds that are structurally closest from D1 (WO 2012/028579 A1) and D2 (WO 2018/202535 A1) were compared under the above-specified conditions by the pre-emergence and post-emergence method. The example numbers given in the tables relate to the compounds disclosed in the respective documents. In addition to the compounds disclosed in D1 and D2, the following compounds V-1 to V-14 that are encompassed by D1 or D2 but are not compounds specified therein were used in the comparative experiments: • V-1: 2-(methylsulfanyl)-3-(methylsulfinyl)-N-(1-methyl-1H-tetrazol-5-yl)-4-(trifluoromethyl)benzamide • V-2: 2-(methylsulfanyl)-3-(methylsulfonyl)-N-(1-methyl-1H-tetrazol-5-yl)-4-(trifluoromethyl)benzamide • V-3: 2,3-bis(ethylsulfanyl)-N-(1-methyl-1H-tetrazol-5-yl)-4-(trifluoromethyl)benzamide • V-4: 2-chloro-3-(ethylsulfanyl)-N-(1-methyl-1H-tetrazol-5-yl)-4-(trifluoromethyl)benzamide • V-5: 2-chloro-4-iodo-3-(methylsulfanyl)-N-(1-methyl-1H-tetrazol-5-yl)benzamide • V-6: 2-chloro-4-iodo-3-(methylsulfinyl)-N-(1-methyl-1H-tetrazol-5-yl)benzamide • V-7: 2-chloro-4-iodo-3-(methylsulfonyl)-N-(1-methyl-1H-tetrazol-5-yl)benzamide • V-8: 2-bromo-3-(methylsulfanyl)-N-(1-methyl-1H-tetrazol-5-yl)-4-(trifluoromethyl)benzamide • V-9: 2-bromo-3-(methylsulfinyl)-N-(1-methyl-1H-tetrazol-5-yl)-4-(trifluoromethyl)benzamide • V-10: 2-bromo-3-(methylsulfonyl)-N-(1-methyl-1H-tetrazol-5-yl)-4-(trifluoromethyl)benzamide • V-11: 2-bromo-3-(ethylsulfanyl)-N-(1-methyl-1H-tetrazol-5-yl)-4-(trifluoromethyl)benzamide • V-12: 2-bromo-3-(ethylsulfinyl)-N-(1-methyl-1H-tetrazol-5-yl)-4-(trifluoromethyl)benzamide • V-13: 2-bromo-3-(ethylsulfonyl)-N-(1-methyl-1-1H-tetrazol-5-yl)-4-(trifluoromethyl)benzamide • V-14: 2-cyclopropyl-3-(ethylsulfanyl)-N-(1-methyl-1H-tetrazol-5-yl)-4-(trifluoromethyl)benzamide Herbicidal Pre-Emergence Action: […]

Alopecurus myosuroides = test: Pre-emergence herbicidal action, ALOMY; parameters: key: % activity: 100 = plants have died, 0 = like control plants; details: comparative experiment, 20 g of a.i./ha
Summary of the method: as §1

Compound: Cn1nnnc1NC(=O)c1ccc(C(F)(F)F)c(CS(C)(=O)=O)c1Cl [Example 1-298]
- Herbicidal action against CYPES (Cyperus esculentus): 100

Compound: COc1c(C(=O)Nc2nnnn2C)ccc(C(F)(F)F)c1CSC [Example 1-134]
- Herbicidal action against CYPES (Cyperus esculentus): 50

Compound: CCn1nnnc1NC(=O)c1ccc(C(F)(F)F)c(CS(C)(=O)=O)c1SC [Example 2-163]
- herbicidal action HORMU (Hordeum murinum [1]): 80

Compound: CCCn1nnnc1NC(=O)c1ccc(C(F)F)c(C[S+]([O-])CC)c1Cl (centres unmarked) [Example 3-324]
- herbicidal action HORMU (Hordeum murinum [1]): 80
- herbicidal activity HORMU (Hordeum murinum [2]): 100%
- herbicidal activity LOLRI (Lolium rigidum): 100%

Compound: CSCc1c(C(F)(F)F)ccc(C(=O)Nc2nnnn2C)c1Br [Example 1-380]
- Herbicidal action against CYPES (Cyperus esculentus): 60

Compound: C=CCSCc1c(C(F)(F)F)ccc(C(=O)Nc2nnnn2C)c1Cl [Example 1-308]
- herbicidal activity LOLRI (Lolium rigidum): 90%

Compound: Cn1nnnc1NC(=O)c1ccc(C(F)(F)F)c(CS(C)(=O)=O)c1Br [Example 1-382, 2-bromo-3-[(methylsulfonyl)methyl]-N-(1-methyl-1H-tetrazol-5-yl)-4-(trifluoromethyl)benzamide]
- Herbicidal action against ALOMY (Alopecurus myosuroides): 30

Compound: Cn1nnnc1NC(=O)c1ccc(C(F)(F)F)c(C[S+](C)[O-])c1Br (centres unmarked) [Example 1-381]
- Herbicidal action against ALOMY (Alopecurus myosuroides): 50

Compound: Cn1nnnc1NC(=O)c1ccc(C(F)(F)F)c(C[S+](C)[O-])c1Cl (racemic) [Example 1-297]
- Herbicidal action against CYPES (Cyperus esculentus): 100

From US12492173B2, “Herbicidal substituted N-tetrazolyl aryl carboxamides” (Bayer Aktiengesellschaft, priority 2019, dated 2025)
